Experimental data published in US20210386756A1, “IMPROVEMENTS FOR PERFORMING AND FACILITATING THE RECOVERY AFTER HEMATOPOIETIC STEM CELL TRANSPLANTATION” (Centro de Investigaciones Energéticas, Medioambientales y …, priority 2018, published 2021).

Legend:
[1] = target: T1, ESRα (Homo sapiens, UniProt P03372); conditions: cited from earlier work
T1 sequence (P03372 1-595): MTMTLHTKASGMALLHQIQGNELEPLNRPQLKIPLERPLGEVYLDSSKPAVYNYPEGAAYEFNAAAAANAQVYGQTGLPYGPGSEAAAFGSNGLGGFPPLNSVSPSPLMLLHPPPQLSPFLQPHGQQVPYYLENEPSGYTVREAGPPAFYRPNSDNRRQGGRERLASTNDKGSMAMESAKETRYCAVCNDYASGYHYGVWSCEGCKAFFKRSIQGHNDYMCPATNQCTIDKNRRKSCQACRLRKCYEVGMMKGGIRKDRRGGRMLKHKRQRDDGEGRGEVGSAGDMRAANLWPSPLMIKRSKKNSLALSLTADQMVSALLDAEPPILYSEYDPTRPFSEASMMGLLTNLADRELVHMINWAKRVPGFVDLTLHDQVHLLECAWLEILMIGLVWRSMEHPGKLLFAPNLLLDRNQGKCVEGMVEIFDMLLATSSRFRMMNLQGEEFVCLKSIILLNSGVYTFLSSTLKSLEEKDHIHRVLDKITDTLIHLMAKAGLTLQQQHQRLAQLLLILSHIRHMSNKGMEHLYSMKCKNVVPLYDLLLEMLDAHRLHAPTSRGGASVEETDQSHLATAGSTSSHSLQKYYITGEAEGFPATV

[2] = tested on: hCD34+ hematopoietic progenitors; test: In vitro toxicity of natural estrogens for hematopoietic progenitors (hCD34+ culture, FACS subsets); assay type: cell-based, human; conditions: for % CD34+/CD38− / % HSC / % MLP / % MPP: four days culture
Experimental: FIG. 9 relates the effect of different concentration of E1, E2, E3 and E4 in human hematopoietic progenitors. Human hematopoietic progenitors were culture in phenol red free media supplemented with 100 ng/mL SCF, 100 ng/ml FLT3L and 100 ng/ml TPO and different concentration of E1, E2, E3 and E4 (from 10 nM to 500 μM). FIG. 9A represents the fold increase of the number of hematopoietic cells after four days in culture. FIG. 9B indicates the total number of primitive hematopoietic progenitors (CD34^+/CD38^−) present in the culture, extrapolated from number of cells and the frequency of this population analyzed by FACS. […] Grey dashed lines point the value of control group, and red dashed lines indicate the initial values at day 0. (Kruskal-Wallis test; P<0.05, data from four independent experiments).
To assess the toxicity of the natural estrogens (E1, E2, E3 and E4) for hematopoietic progenitors, in vitro studies were performed. 5×10^4 hCD34^+ were cultured in a phenol red-free media, X-Vivo 20 (Lonza), in presence of 100 ng/ml SCF, 100 ng/ml FLT3L, 100 ng/ml TPO, 0.5% PS, 1% Glutamax (Thermofisher) and different concentrations of E1, E2, E3 or E4 (from 10 nM to 500 μM). Cell proliferation and immunophenotype of different hematopoietic subsets (CD34^+/CD38^−, HSC [CD34^+/CD38^−/CD45RA^−/CD90^+], Multipotent Progenitors [MPP, CD34^+/CD38^−/CD45RA^−/CD90^−], Multipotent Lymphoid Progenitors [MLP, CD34^+/CD38^−/CD45RA^+] were evaluated at day 0 and four days after culture.

[3] = tested on: human cord blood CD34+; test: Human engraftment in female NSG mice transplanted with a limited CD34+ cell dose (5×10^3); assay type: in vivo, mouse; conditions: low dose 5×10^3 hCD34+, mean +/− SEM
Text: FIG. 7A indicates human hematopoietic reconstitution after four months. […] However, in spite of this presence of endogenous estrogens, the human engraftment in female recipients was increased after E2 and more importantly after E4 treatment. FIG. 7B relates the presence of primitive hematopoietic progenitors was higher in the female mice treated with estrogens, which indicated the quality of the reconstitution. (Kruskal-Wallis test; P<0.05, 4 mice per group). […] Three-four months later, the animals were sacrificed and the human hematopoietic engraftment was analyzed by FACS. Human hematopoietic population was identified as the cells positive for hCD45-APC-Cy7 (Biolegend) and negative for mouse CD45.1-PE (Biolegend). To assess whether estrogen can improve hematopoietic reconstitution in female recipients, female NSG were irradiated and transplanted by a low doses of human cord blood CD34^+ (5×10^3 hCD34^+). The human engraftment was analyzed as described in Example 1. […] However, in spite of this presence of endogenous estrogens, the human engraftment in female recipients was increased after E2 and more importantly after E4 treatment.

C[C@]12CC[C@@H]3c4ccc(O)cc4CC[C@H]3[C@@H]1[C@@H](O)[C@@H](O)[C@@H]2O [E4, estetrol]
affinity for ER relative to β-estradiol [1]: less affinity than β-estradiol
affinity for ESRα versus ESRβ [1]: high affinity for ESRα as compared to the ESRβ
toxicity for hematopoietic progenitor subpopulations ([2]; 10 nM to 500 μM, in vitro): less toxic
% CD34+/CD38− ([2]; 10 nM): 13.35 ± 0.87%
% HSC ([2]; 10 nM): 1.75 ± 0.13%
% MLP ([2]; 10 nM): 4.29 ± 0.44%
% MPP ([2]; 10 nM): 4.39 ± 0.25%
% CD34+/CD38− ([2]; 100 nM): 12.60 ± 0.68%
% HSC ([2]; 100 nM): 1.67 ± 0.12%
% MLP ([2]; 100 nM): 4.42 ± 0.16%
% MPP ([2]; 100 nM): 4.35 ± 0.56%
% CD34+/CD38− ([2]; 1 μM): 12.08 ± 1.22%
% HSC ([2]; 1 μM): 1.86 ± 0.20%
% MLP ([2]; 1 μM): 3.48 ± 0.73%
% MPP ([2]; 1 μM): 4.89 ± 0.30%
% CD34+/CD38− ([2]; 10 μM): 13.62 ± 0.54%
% HSC ([2]; 10 μM): 2.03 ± 0.04%
% MLP ([2]; 10 μM): 4.30 ± 0.29%
% MPP ([2]; 10 μM): 4.57 ± 0.35%
% CD34+/CD38− ([2]; 100 μM): 17.26 ± 2.24%
% HSC ([2]; 100 μM): 3.67 ± 0.65%
% MLP ([2]; 100 μM): 5.66 ± 1.49%
% MPP ([2]; 100 μM): 3.85 ± 0.32%
% CD34+/CD38− ([2]; 500 μM): 10.82 ± 2.79%
% HSC ([2]; 500 μM): 3.76 ± 1.25%
% MLP ([2]; 500 μM): 0.89 ± 0.18%
% MPP ([2]; 500 μM): 3.11 ± 1.20%
Percentage of hematopoietic stem cells (hCD34+/hCD38−) in the human hematopoietic population [3]: 0.39 +/− 0.08 (n = 3) %
Percentage of human hematopoietic reconstitution [3]: 40.80 +/− 4.58 (n = 3) %
